Experimental data as given in patent US10940139B2, “Compounds that interact with the Ras superfamily for the treatment of cancers, inflammatory diseases, rasopathies, and fibrotic disease” (Shy Therapeutics LLC, priority 2017, dated 2021).

Tests used:
KRas G12D mutant protein = KRas G12D mutant protein (Homo sapiens (Human), UniProt P01116, G12D); experiment: Ras GTP binding domain inhibition assay (labeled GTP); details: at 20 μM; read-out: KRas G12D % Inh.
Description: The following method was developed as specific assay for KRas G12D mutant protein.
Buffer-I: • 50 mM Tris, pH 7.5 • 150 mM NaCl (optional) • 1 mM MgCl2 • 1 mM DTT. • KRas G12D mutant protein was expressed as a His-tagged protein. Purified His-KRas G12D protein was diluted in buffer-I to a final concentration of 3-10 μg/ml. • 200 μl of the diluted His-KRas G12D protein was added to a nickel coated 96 well plate and incubated overnight at 4° C. • The next day, wells were washed 3× in 200 μl of Buffer-I. • Then 200 μl of Buffer-I were added to each well in the presence of 1% DMSO. • Tested compounds were added to the protein-coated wells at a concentration of 20 μM, and incubated for 3 hours at room temperature. While performing IC50 measurements a serial dilution of all tested concentrations was prepared.
Then 22 μl of Cy3-GTP or Cy5-GTP was added to each well. The labeled GTP was incubated for 45 min. at room temperature. • Following GTP incubation, wells were washed 3× in Buffer-I, and 200 μl of Buffer-I were added to each well. • Following washes, the amount of bound labeled-GTP was measured with an Eppendorf AF2200 plate reader.

[1] = target: KRas G12D/Q61H double mutant (Homo sapiens (Human), UniProt P01116, G12D/Q61H); experiment: as above; details: at 20 μM; read-out: KRas G12D Q61H % Inh.
Chain of KRas G12D/Q61H double mutant (P01116-2 other isoform, or with tags, fused parts or gaps G12D/Q61H): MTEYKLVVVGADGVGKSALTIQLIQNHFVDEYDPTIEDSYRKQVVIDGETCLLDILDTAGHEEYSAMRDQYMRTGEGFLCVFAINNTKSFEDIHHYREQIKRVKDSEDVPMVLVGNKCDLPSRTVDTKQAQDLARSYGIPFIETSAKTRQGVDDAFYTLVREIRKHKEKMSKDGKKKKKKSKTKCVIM
In short: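 His-tagged KRas protein (3-10 μg/ml) was captured overnight at 4° C on nickel-coated wells in 50 mM Tris pH 7.5, 1 mM MgCl2, 1 mM DTT. Bound labeled GTP was read by fluorescence after washing.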

Rac-1 = Rac-1 (Homo sapiens (Human), UniProt P63000); experiment: Rac inhibition assay (labeled GTP); format: binding; details: read-out: Rac-1 % Inh.
Rho-A = Rho-A (Homo sapiens (Human), UniProt P61586); experiment: Rho inhibition assay (labeled GTP); format: binding; details: read-out: Rho-A % Inh.
Chain of Rho-A (P61586 whole entry): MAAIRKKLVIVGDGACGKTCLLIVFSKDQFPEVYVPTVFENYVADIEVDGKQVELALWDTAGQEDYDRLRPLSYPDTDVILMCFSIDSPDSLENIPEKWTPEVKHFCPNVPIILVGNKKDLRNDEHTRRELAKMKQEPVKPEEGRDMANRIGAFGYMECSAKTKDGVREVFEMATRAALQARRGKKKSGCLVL

Chain of KRas G12D mutant protein (P01116-2 other isoform, or with tags, fused parts or gaps G12D): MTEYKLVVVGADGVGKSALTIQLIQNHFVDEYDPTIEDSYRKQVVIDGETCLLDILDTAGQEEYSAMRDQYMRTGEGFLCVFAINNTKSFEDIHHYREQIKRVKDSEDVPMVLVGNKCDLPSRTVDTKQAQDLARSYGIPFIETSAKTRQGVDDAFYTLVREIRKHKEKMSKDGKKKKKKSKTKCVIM

SMILES	inhibition at 20 µM (KRas G12D mutant protein) [%]	inhibition at 20 µM [1] [%]	inhibition at 20 µM (Rac-1) [%]	inhibition at 20 µM (Rho-A) [%]
COc1ccc(COC[C@H]2OC(c3csc4c(=O)[nH]c(-c5ccccn5)nc34)[C@H](O)[C@@H]2O)cc1 (some centres unmarked)	25 to 50	25 to 50	51 to 75	76 to 100
Oc1nc(-c2ccccn2)nc2scc(Br)c12 [drawing 3623]	51 to 75	51 to 75	76 to 100	76 to 100
Oc1nc(-c2ccccn2)nc2sccc12 [drawing 3624]	25 to 50	51 to 75	76 to 100	76 to 100
Oc1nc(-c2ccccn2)nc2c(-c3ccccc3Cl)csc12 [drawing 3626]	25 to 50	51 to 75	76 to 100	76 to 100
COc1ccnc(-c2nc(O)c3ccsc3n2)c1 [drawing 3627]	51 to 75	51 to 75	76 to 100	51 to 75
CC1CN(c2ccccc2)CCN1C(=O)c1csc2c(O)nc(-c3ccccn3)nc12 (centres unmarked) [drawing 3650]	76 to 100	51 to 75	76 to 100	76 to 100
COc1cccc(CN2CCN(C(=O)c3csc4c(O)nc(-c5ccccn5)nc34)CC2)c1 [drawing 3652]	76 to 100	25 to 50	76 to 100	76 to 100
O=C(c1csc2c(O)nc(-c3ccccn3)nc12)N1CCOC(c2ccccc2Cl)C1 (centres unmarked) [drawing 3658]	25 to 50	51 to 75	51 to 75	76 to 100
COc1cccc(C2CN(C(=O)c3csc4c(O)nc(-c5ccccn5)nc34)CCN2)c1 (centres unmarked) [drawing 3662]	51 to 75	25 to 50	76 to 100	76 to 100
N#Cc1ccc(COCC(=O)Nc2nc(-c3ccccn3)nc3sccc23)cc1 [drawing 3688]	76 to 100	25 to 50	76 to 100	76 to 100
COc1ccnc(-c2nc(O)c3c(Cl)csc3n2)c1 [drawing 3689]	51 to 75	51 to 75	76 to 100	76 to 100
Cc1cnc(-c2ccccn2)nc1NC(=O)C1CCCc2cc(C#N)ccc21 (centres unmarked) [drawing 3699]	25 to 50	51 to 75	76 to 100	76 to 100
O=C(COCc1ccncc1)Nc1nc(-c2ccccn2)nc2sccc12 [drawing 3700]	51 to 75	51 to 75	76 to 100	76 to 100
O=C(COCc1cccnc1)Nc1nc(-c2ccccn2)nc2sccc12 [drawing 3701]	51 to 75	51 to 75	76 to 100	76 to 100
COc1ccc(-c2c(-c3ccccc3)sc3c(O)nc(-c4nccn4C)nc23)cn1 [drawing 3911]	1 to 25		1 to 25	1 to 25
Cn1ccnc1-c1nc(O)c2sc(-c3ccccc3)c(-c3ccccc3Cl)c2n1 [drawing 3913]	51 to 75		51 to 75	51 to 75
COCCNc1nc(-c2nccn2C)nc2sc(-c3ccccc3)c(-c3ccncc3)c12 [drawing 3914]	51 to 75		76 to 100	76 to 100
COCCNc1nc(-c2nccn2C)nc2sc(-c3ccc(OC)cc3)c(-c3ccccc3)c12 [drawing 3915]	25 to 50		25 to 50	1 to 25
Cc1sc2c(O)nc(-c3nccn3C)nc2c1-c1ccc(OCC(C)C)nc1 [drawing 3918]	1 to 25		25 to 50	1 to 25
COc1ccc(-c2c(C)sc3c(O)nc(-c4nccn4C)nc23)cn1 [drawing 3919]	1 to 25		1 to 25	0
CC(C)COc1ccc(-c2csc3c(O)nc(-c4cn(C)cn4)nc23)cn1 [drawing 3923]	1 to 25		25 to 50	25 to 50
Cc1sc2c(O)nc(-c3nccn3C)nc2c1-c1ccc(OC(C)C)c(F)c1 [drawing 3928]	51 to 75		51 to 75	25 to 50
CC(C)Oc1ccc(-c2c(-c3ccccc3)sc3c(O)nc(-c4nccn4C)nc23)cc1F [drawing 3929]	25 to 50		51 to 75	25 to 50
COCCNc1nc(-c2ccccn2)nc2sc(-c3ccccc3)c(-c3ccccn3)c12 [drawing 3938]	1 to 25		1 to 25	25 to 50
COCCNc1nc(-c2nccn2C)nc2sc(-c3ccccc3)c(-c3ccccn3)c12 [drawing 3940]	25 to 50		25 to 50	51 to 75

Further lines, results first:

inhibition at 20 µM (KRas G12D mutant protein) [%]	inhibition at 20 µM [1] [%]	inhibition at 20 µM (Rac-1) [%]	inhibition at 20 µM (Rho-A) [%]	SMILES
0		1 to 25	0	Cn1ccnc1-c1nc(O)c2sc(-c3ccccc3)c(-c3cccc(C(F)(F)F)c3)c2n1 [drawing 3910]
25 to 50		25 to 50	51 to 75	Cc1sc2c(O)nc(-c3nccn3C)nc2c1-c1ccccc1 [drawing 3912]
25 to 50		51 to 75	25 to 50	Cn1ccnc1-c1nc(O)c2scc(-c3cccc(C(F)(F)F)c3)c2n1 [drawing 3916]
1 to 25		25 to 50	0	Cc1sc2c(O)nc(-c3nccn3C)nc2c1-c1cccc(C(F)(F)F)c1 [drawing 3917]
25 to 50		51 to 75	51 to 75	Cc1sc2c(O)nc(-c3nccn3C)nc2c1-c1ccccc1Cl [drawing 3920]
51 to 75		51 to 75	25 to 50	Cn1ccnc1-c1nc(O)c2scc(-c3cccc(OC(F)(F)F)c3)c2n1 [drawing 3921]
25 to 50		25 to 50	25 to 50	Cn1cnc(-c2nc(O)c3scc(-c4cccc(C(F)(F)F)c4)c3n2)c1 [drawing 3922]
25 to 50		25 to 50	25 to 50	Cn1cnc(-c2nc(O)c3scc(-c4cccc(OC(F)(F)F)c4)c3n2)c1 [drawing 3924]
1 to 25		1 to 25	1 to 25	Oc1nc(-c2ccncn2)nc2c(-c3cccc(C(F)(F)F)c3)csc12 [drawing 3925]
25 to 50		51 to 75	51 to 75	Oc1nc(-c2ncccn2)nc2c(-c3cccc(C(F)(F)F)c3)csc12 [drawing 3926]
25 to 50		51 to 75	25 to 50	CC(C)Oc1ccc(-c2csc3c(O)nc(-c4nccn4C)nc23)cc1F [drawing 3927]
76 to 100		51 to 75	51 to 75	CC(C)COc1ccc(-c2csc3c(O)nc(-c4nccn4C)nc23)cn1 [drawing 3930]
51 to 75		51 to 75	51 to 75	COc1ccc(-c2csc3c(O)nc(-c4nccn4C)nc23)cn1 [drawing 3931]
51 to 75		51 to 75	25 to 50	Cn1ccnc1-c1nc(O)c2scc(-c3ccccc3)c2n1 [drawing 3932]
25 to 50		51 to 75	51 to 75	Cn1ccnc1-c1nc(O)c2scc(-c3ccccc3Cl)c2n1 [drawing 3933]
25 to 50		51 to 75	25 to 50	Cn1ccnc1-c1nc(O)c2scc(-c3ccc(F)cc3F)c2n1 [drawing 3934]
25 to 50		51 to 75	51 to 75	Cn1ccnc1-c1nc(O)c2scc(-c3cccc(Cl)c3)c2n1 [drawing 3935]
25 to 50		25 to 50	51 to 75	COC(C)(C)c1ccc(-c2csc3c(O)nc(-c4nccn4C)nc23)cc1 [drawing 3936]
1 to 25		25 to 50	25 to 50	Cn1ccnc1-c1nc(O)c2scc(-c3ccc(C(C)(C)C)cc3)c2n1 [drawing 3937]
1 to 25		1 to 25	1 to 25	Cc1sc2c(O)nc(-c3nccn3C)nc2c1-c1ccc(F)cc1F [drawing 3939]
